Test results taken from ChEMBL document CHEMBL1201862, “PubChem BioAssay data set” (2004).
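Where inhibition never reached the appropriate level, the endpoint shown equals the highest concentration tested. Otherwise, values were interpolated linearly from a five-concentration, 48-hour dose response in 96-well plates. Abbreviation: GI50, concentration required for 50% inhibition of growth.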 The source made the active and inactive calls. Rule as the data show it: active = GI50 up to about 1.1 µM and inactive = higher.

What was measured:
Assay in all cases: NCI-60 cell line screen, 48 h
786-0 = tested on: 786-0
A498 = tested on: A498
A549 = tested on: A549
ACHN = tested on: ACHN
CAKI-1 = tested on: CAKI-1
CCRF-CEM = tested on: CCRF-CEM
COLO 205 = tested on: COLO 205
DLD-1 = tested on: DLD-1
DMS-114 = tested on: DMS-114
DMS-273 = tested on: DMS-273
EKVX = tested on: EKVX
HCC 2998 = tested on: HCC 2998
HCT-116 = tested on: HCT-116
HCT-15 = tested on: HCT-15
HL-60 = tested on: HL-60
HOP-18 = tested on: HOP-18
HOP-62 = tested on: HOP-62
HOP-92 = tested on: HOP-92
HT-29 = tested on: HT-29
IGROV-1 = tested on: IGROV-1
K562 = tested on: K562
KM-20L2 = tested on: KM-20L2
KM12 = tested on: KM12
LOX IMVI = tested on: LOX IMVI
LXFL 529 = tested on: LXFL 529
M14 = tested on: M14
M19-MEL = tested on: M19-MEL
MOLT-4 = tested on: MOLT-4
Malme-3M = tested on: Malme-3M
NCI-H23 = tested on: NCI-H23
NCI-H460 = tested on: NCI-H460
NCI-H522 = tested on: NCI-H522
OVCAR-3 = tested on: OVCAR-3
OVCAR-4 = tested on: OVCAR-4
OVCAR-5 = tested on: OVCAR-5
OVCAR-8 = tested on: OVCAR-8
RPMI-8226 = tested on: RPMI-8226
RXF 393 = tested on: RXF 393
SF-268 = tested on: SF-268
SF-295 = tested on: SF-295
SK-MEL-28 = tested on: SK-MEL-28
SK-MEL-2 = tested on: SK-MEL-2
SK-MEL-5 = tested on: SK-MEL-5
SK-OV-3 = tested on: SK-OV-3
SN12C = tested on: SN12C
SNB-19 = tested on: SNB-19
SNB-75 = tested on: SNB-75
SR = tested on: SR
SW-620 = tested on: SW-620
TK-10 = tested on: TK-10
U-251 = tested on: U-251
UACC-257 = tested on: UACC-257
UACC-62 = tested on: UACC-62
UO-31 = tested on: UO-31
XF498 = tested on: XF498
NCI-H226 = tested on: NCI-H226
SF-539 = tested on: SF-539
SNB-78 = tested on: SNB-78

Measured: GI50

CCOC(=O)C(=O)/C=C(\C)Nc1c(NC2OCC(OC(C)=O)C(OC(C)=O)C2OC(C)=O)nc(SC)[nH]c1=O (stereo unspecified)
inactive: 786-0 > 100 µM | A498 > 100 µM | A549 > 100 µM | ACHN > 100 µM | CAKI-1 > 100 µM | CCRF-CEM > 100 µM | COLO 205 > 100 µM | DLD-1 > 100 µM | DMS-114 > 100 µM | DMS-273 > 100 µM | EKVX > 100 µM | HCC 2998 > 100 µM | HCT-116 > 100 µM | HL-60 > 10 µM | HOP-18 > 100 µM | HOP-62 > 100 µM | HOP-92 > 100 µM | HT-29 > 100 µM | IGROV-1 > 100 µM | K562 > 100 µM | KM-20L2 > 100 µM | KM12 > 100 µM | LOX IMVI > 100 µM | LXFL 529 > 100 µM | M14 > 100 µM | M19-MEL > 100 µM | MOLT-4 > 100 µM | Malme-3M > 100 µM | NCI-H23 > 100 µM | NCI-H460 > 100 µM | NCI-H522 > 100 µM | OVCAR-3 > 100 µM | OVCAR-4 > 100 µM | OVCAR-5 > 100 µM | OVCAR-8 > 100 µM | RPMI-8226 > 100 µM | RXF 393 > 100 µM | SF-268 > 100 µM | SF-295 > 100 µM | SK-MEL-28 > 100 µM | SK-MEL-2 > 100 µM | SK-MEL-5 > 100 µM | SK-OV-3 > 100 µM | SN12C > 100 µM | SNB-19 > 100 µM | SNB-75 > 100 µM | SR > 100 µM | SW-620 > 100 µM | TK-10 > 100 µM | U-251 > 100 µM | UACC-257 > 100 µM | UACC-62 > 100 µM | UO-31 > 100 µM | XF498 > 100 µM
> 100 µM: HCT-15

COC1OC(CBr)C(OC(=O)c2ccccc2)C(O)C1Br (stereo unspecified)
> 100 µM: HCT-15
inactive: 786-0 > 100 µM | A498 > 100 µM | A549 > 100 µM | CAKI-1 > 100 µM | CCRF-CEM > 100 µM | COLO 205 > 100 µM | DLD-1 > 100 µM | DMS-273 > 100 µM | HCC 2998 > 100 µM | HCT-116 > 100 µM | HL-60 > 100 µM | HOP-18 > 100 µM | HOP-62 > 100 µM | HOP-92 > 100 µM | HT-29 > 100 µM | IGROV-1 > 10 µM | K562 > 100 µM | KM-20L2 > 100 µM | KM12 > 100 µM | LOX IMVI > 100 µM | LXFL 529 > 100 µM | M14 > 100 µM | M19-MEL > 100 µM | MOLT-4 > 100 µM | Malme-3M > 100 µM | NCI-H226 > 100 µM | NCI-H23 > 100 µM | NCI-H460 > 100 µM | NCI-H522 > 100 µM | OVCAR-3 > 100 µM | OVCAR-4 > 100 µM | OVCAR-5 > 100 µM | OVCAR-8 > 100 µM | RPMI-8226 > 100 µM | RXF 393 > 100 µM | SF-268 > 100 µM | SF-295 > 100 µM | SF-539 > 100 µM | SK-MEL-28 > 100 µM | SK-MEL-5 > 100 µM | SN12C > 100 µM | SNB-19 > 100 µM | SNB-78 > 100 µM | SR > 100 µM | SW-620 > 100 µM | TK-10 > 100 µM | U-251 > 100 µM | UACC-257 > 10 µM | UACC-62 > 100 µM | XF498 > 10 µM
